The text below walks through data of patent US8865623B2, “Herbicidally active cyclic diones and derivatives thereof, processes for their preparation, compositions, and method of controlling weeds” (Syngenta Limited, priority 2009, dated 2014).

What all share (assay type): in vivo
The test system of experiment [1] is Lolium perenne (LOLPE). The experiment can be described thus: Pre-emergence herbicidal activity, glasshouse pot test. The conditions noted are these: Lolium perenne, 312 h; Rate 250 g/ha; pre-emergence spray; evaluated after 13 days; read-out: Pre-emergence activity LOLPE (100=total damage to plant; 0=no damage to plant). Summed up:
(§1)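 Sow seeds in standard soil in pots; grow 1 day (pre-emergence) or 8 days (post-emergence) at 24/16° C, 14 h light, 65% humidity. Spray aqueous solution from acetone/water 50:50 + 0.5% Tween 20 formulation. Grow on, watering twice daily; score damage 0–100 after 13 days.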

In experiment [2] the test system is Alopecurus myosuroides (ALOMY). The description is as above. The conditions noted are these: Alopecurus myosuroides, 312 h; Rate 250 g/ha; pre-emergence spray; evaluated after 13 days; read-out: Pre-emergence activity ALOMY (100=total damage to plant; 0=no damage to plant). Summed up:
as §1

The test system of experiment [3] is Avena fatua (AVEFA). Described as above. The settings on record: Avena fatua, 312 h; Rate 250 g/ha; pre-emergence spray; evaluated after 13 days; read-out: Pre-emergence activity AVEFA (100=total damage to plant; 0=no damage to plant). Summed up:
as §1

The test system of experiment [4] is Echinochloa crus-galli (ECHCG). The description is as above. The conditions noted are these: Echinochloa crus-galli, 312 h; Rate 250 g/ha; pre-emergence spray; evaluated after 13 days; read-out: Pre-emergence activity ECHCG (100=total damage to plant; 0=no damage to plant). Summed up:
as §1

Experiment [5] concerns Lolium perenne (LOLPE). The experiment can be described thus: Post-emergence herbicidal activity, glasshouse pot test. The settings on record: Lolium perenne, 312 h, rate 250 g/ha, evaluated after 13 days, glasshouse, read-out: Post-emergence activity LOLPE (100=total damage to plant; 0=no damage to plant). Put shortly: as §1
The subject of experiment [6] is Alopecurus myosuroides (ALOMY). The experiment is described as above. The conditions noted are these: Alopecurus myosuroides, 312 h, rate 250 g/ha, evaluated after 13 days, glasshouse, read-out: Post-emergence activity ALOMY (100=total damage to plant; 0=no damage to plant). Summed up: as §1
The test system of experiment [7] is Avena fatua (AVEFA). Described as above. The settings on record: Avena fatua, 312 h, rate 250 g/ha, evaluated after 13 days, glasshouse, read-out: Post-emergence activity AVEFA (100=total damage to plant; 0=no damage to plant). Summed up: as §1
Experiment [8] deals with Echinochloa crus-galli (ECHCG). Described as above. The conditions noted are these: Echinochloa crus-galli, 312 h, rate 250 g/ha, evaluated after 13 days, glasshouse, read-out: Post-emergence activity ECHCG (100=total damage to plant; 0=no damage to plant). Summed up: as §1

As for `CCc1ccc(Oc2cnc3cc(F)ccc3n2)cc1C1=C(O)CC2(CCOCC2)CC1=O` [Example A-311], the pest or weed control at 250 g/ha in the experiment on Lolium perenne (LOLPE) [1] amounted to 100%; in experiment [2], 90%; in the experiment with Avena fatua (AVEFA) [3] it was 100%; in experiment [4], 100%; in the experiment on Lolium perenne (LOLPE) [5] it was 100%; in experiment [6], 100%. Further, the pest or weed control at 250 g/ha (in the experiment on Avena fatua (AVEFA) [7]; in experiment [8]) was 100% each time.

For the compound `CCc1ccc(Oc2ccc(F)c(Cl)c2)cc1C1=C(O)CC(C)(C)CC1=O` [Example A-257], the pest or weed control at 250 g/ha in the experiment on Lolium perenne (LOLPE) [1] amounted to 20%; in experiment [2] it was 0%; in the experiment on Avena fatua (AVEFA) [3], 0%; in experiment [4], 40%; with Lolium perenne (LOLPE) [5] it was 50%; in experiment [6], 30%. Besides, the pest or weed control at 250 g/ha was 0% in the experiment with Avena fatua (AVEFA) [7] and 80% in experiment [8].

Consider `CCc1ccc(Oc2nc3c(Cl)cc(Cl)cc3s2)cc1C1=C(O)[C@@H]2CC[C@](C)(C1=O)C2(C)C` [Example A-328], for which the pest or weed control at 250 g/ha in the experiment on Lolium perenne (LOLPE) [1] is 90%; in experiment [2] it was 50%; with Avena fatua (AVEFA) [3], 30%; in experiment [4] it was 100%; with Lolium perenne (LOLPE) [5], 70%; in experiment [6], 60%. Moreover, the pest or weed control at 250 g/ha in the experiment on Avena fatua (AVEFA) [7] came out at 80%; in experiment [8], 100%.

Regarding `CCc1ccc(Oc2ccc(C(F)(F)F)c(C#N)c2)cc1C1=C(O)CC(C)(C)CC1=O` [Example A-295], the pest or weed control at 250 g/ha in the experiment on Lolium perenne (LOLPE) [1] turned out to be 50%; in experiment [2] it was 50%; with Avena fatua (AVEFA) [3] it was 20%; in experiment [4] it was 70%; in the experiment with Lolium perenne (LOLPE) [5], 40%; in experiment [6], 80%. The values for the pest or weed control at 250 g/ha (in the experiment on Avena fatua (AVEFA) [7]; in experiment [8]) were 60% and 100%, respectively.

`CCc1ccc(Oc2ccc(Cl)cc2)cc1C1=C(O)[C@@H]2CC[C@](C)(C1=O)C2(C)C` (single isomer, unassigned) [Example A-96]: the pest or weed control at 250 g/ha with Lolium perenne (LOLPE) [1] was 100%; in experiment [2] it was 70%; in the experiment on Avena fatua (AVEFA) [3], 40%; in experiment [4], 90%; in the experiment with Lolium perenne (LOLPE) [5] it was 30%; in experiment [6], 60%. Besides, the figures for the pest or weed control at 250 g/ha (in the experiment on Avena fatua (AVEFA) [7]; in experiment [8]) were 20% and 60%, respectively.

Turning to `CCc1ccc(Oc2ccc(C#N)cc2C(F)(F)F)cc1C1=C(O)CC(C)(C)CC1=O` [Example A-290], the pest or weed control at 250 g/ha worked out at 0% in the experiment with Lolium perenne (LOLPE) [1]; 0% in experiment [2]; 0% with Avena fatua (AVEFA) [3]; 20% in experiment [4]; 10% in the experiment with Lolium perenne (LOLPE) [5]; 0% in experiment [6]. Further, the pest or weed control at 250 g/ha in the experiment on Avena fatua (AVEFA) [7] was determined as 0%; in experiment [8], 60%.

Regarding `CCc1ccc(Oc2ccc3ccccc3c2)cc1C1=C(O)C(C)(C)OC(C)(C)C1=O` [Example A-56], the pest or weed control at 250 g/ha was determined as 100% in the experiment with Lolium perenne (LOLPE) [1]; 80% in experiment [2]; 30% in the experiment with Avena fatua (AVEFA) [3]; 80% in experiment [4]; 100% in the experiment with Lolium perenne (LOLPE) [5]; 100% in experiment [6]. In addition, the pest or weed control at 250 g/ha was 0% with Avena fatua (AVEFA) [7] and 100% in experiment [8].

As to `CCc1ccc(Oc2ccc(C#N)cc2F)cc1C1=C(O)CC2(CCOCC2)CC1=O` [Example A-270], the pest or weed control at 250 g/ha amounted to 90% with Lolium perenne (LOLPE) [1]; 90% in experiment [2]; 60% in the experiment with Avena fatua (AVEFA) [3]; 100% in experiment [4]; 70% in the experiment on Lolium perenne (LOLPE) [5]; 90% in experiment [6]. For the same compound, the pest or weed control at 250 g/ha came to 90% in the experiment on Avena fatua (AVEFA) [7] and 100% in experiment [8].
